Results: patent US9862682B2, “Functionalized pegylated cyanine compounds, pharmaceutical compositions, and methods of use thereof” (BroadPharm, priority 2016, dated 2018)

Experiment: Photophysical properties of cyanine dyes in dimethyl sulfoxide (DU 800 spectrophotometer)
Format: physicochemical
Settings: for Excitation (nm): absorption
Text: The photophysical properties of a variety of cyanine dyes in dimethyl sulfoxide has been measured by the DU 800 spectrophotometer.

Row | SMILES | Emission (nm) | Extinction Coefficient | Excitation (nm)
1 | COCCOCCOCCOCC[N+]1=C(/C=C/C=C/C=C2/N(CCOCCOCCOCCN)c3ccccc3C2(C)C)C(C)(C)c2ccccc21 [A2] | 667 | 1.63 × 10^5 | 649
2 | C#CCOCCOCCOCCOCCOc1ccc2c(c1)C(C)(C)\C(=C/C=C\C=C/C1=[N+](C)c3ccc(OCCOCCOCCOCCOC)cc3C1(C)C)N2C [B1] | 699 | 6.12 × 10^4 | 649
3 | COCCOCCOCCOCC[N+]1=C(/C=C/C=C/C=C2\N(CCOCCOCCOCCOCCC(=O)NCCC(=O)N3Cc4ccccc4C#Cc4ccccc43)c3ccccc3C2(C)C)C(C)(C)c2ccccc21 [D4] | 667 | 6.42 × 10^4 | 649
4 | CC1(C)C(/C=C/C=C/C=C2\N(CCOCCOCCOCCOCCC(=O)NCCN3C(=O)C=CC3=O)c3ccccc3C2(C)C)=[N+](CCOCCOCCOCCN=[N+]=[N-])c2ccccc21 [D3] | 667 | 6.94 × 10^4 | 649

Results, then the compound that gave them:

Row | Emission (nm) | Extinction Coefficient | Excitation (nm) | SMILES
5 | 682 | 7.31 × 10^4 | 661 | O=C(O)CCOCCOCCOCCN1\C(=C/C=C\C=C\c2sc3ccccc3[n+]2CCOCCOCCOCCC(=O)O)Sc2ccccc21 [E2]
6 | 817 | 1.16 × 10^5 | 785 | CC1(C)C(/C=C/C2=C(Cl)C(=C/C=C3/N(CCOCCOCCOCCN=[N+]=[N-])c4ccccc4C3(C)C)/CCC2)=[N+](CCOCCOCCOCCN=[N+]=[N-])c2ccccc21 [F1]
7 | 671 | 4.23 × 10^4 | 652 | COCCOCCOCCOCCN1/C(=C/C=C/C=C/C2=[N+](CCOCCOCCOCCN=[N+]=[N-])c3ccccc3C2(C)C)Sc2ccccc21 [G2]
8 | 685 | 7.65 × 10^4 | 661 | COCCOCCOCCOCC[N+]1=C(/C=C/C=C/C=C2\Sc3ccccc3N2CCOCCOCCOCCC(=O)O)C(C)(C)c2ccccc21 [G1]
9 | 682 | 7.11 × 10^4 | 661 | COCCOCCOCCOCC[n+]1c(/C=C/C=C/C=C2\Sc3ccccc3N2CCOCCOCCOCCC(=O)O)sc2ccccc21 [E1]
